According to ChEMBL document CHEMBL1144878, “N-(omega-(4-(2-methoxyphenyl)piperazin-1-yl)alkyl)carboxamides as dopamine D2 and D3 receptor ligands” (J Med Chem, 2003):

What was measured:
[1] = target: D(2) dopamine receptor (Homo sapiens, UniProt P14416); test: biochemical
Description: Binding affinity for human dopamine receptor D2 by displacing [125I]iodosulpiride expressed in CHO cells

[2] = target: T1, D(3) dopamine receptor (Homo sapiens, UniProt P35462); test: biochemical
Target sequence in this assay (P35462 whole entry): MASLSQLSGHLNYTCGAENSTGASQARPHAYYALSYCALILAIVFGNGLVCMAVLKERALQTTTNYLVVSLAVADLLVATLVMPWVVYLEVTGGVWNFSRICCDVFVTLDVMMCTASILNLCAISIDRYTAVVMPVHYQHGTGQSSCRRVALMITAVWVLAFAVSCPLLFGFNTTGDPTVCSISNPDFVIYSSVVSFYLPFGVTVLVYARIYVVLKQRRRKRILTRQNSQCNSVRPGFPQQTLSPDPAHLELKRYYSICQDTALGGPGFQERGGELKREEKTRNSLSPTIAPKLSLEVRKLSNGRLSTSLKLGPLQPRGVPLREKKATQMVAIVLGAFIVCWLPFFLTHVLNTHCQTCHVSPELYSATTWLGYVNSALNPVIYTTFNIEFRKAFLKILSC
Description: Binding affinity for human dopamine receptor D3 by displacing [125I]iodosulpiride expressed in CHO cells

[3] = target: T1, D(3) dopamine receptor; test: Effective concentration for Dopamine receptor D3 was determined; format: functional
Target sequence in this assay (P35462 whole entry, looked up): as the sequence (P35462 whole entry) above

[4] = target: D(3) dopamine receptor (Homo sapiens); test: Effective concentration for Dopamine receptor D3 was determined
[5] = system: D(3) dopamine receptor (Homo sapiens); test: Intrinsic activity for Dopamine receptor D3 was determined

Chain of D(2) dopamine receptor (P14416 whole entry): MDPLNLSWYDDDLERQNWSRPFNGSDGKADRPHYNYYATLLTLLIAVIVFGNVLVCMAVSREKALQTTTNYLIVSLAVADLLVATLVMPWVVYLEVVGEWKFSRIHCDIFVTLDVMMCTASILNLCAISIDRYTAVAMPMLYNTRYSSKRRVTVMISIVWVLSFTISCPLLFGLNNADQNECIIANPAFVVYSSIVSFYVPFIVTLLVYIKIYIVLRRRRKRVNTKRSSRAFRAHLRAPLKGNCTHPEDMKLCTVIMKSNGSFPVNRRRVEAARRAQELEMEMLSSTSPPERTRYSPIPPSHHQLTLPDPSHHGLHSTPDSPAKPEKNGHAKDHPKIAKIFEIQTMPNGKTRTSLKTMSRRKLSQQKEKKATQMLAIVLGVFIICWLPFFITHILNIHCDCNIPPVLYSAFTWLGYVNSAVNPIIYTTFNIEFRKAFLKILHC

Row | Compound | Ki [1] | Ki [2] | EC50 [3] | EC50 [4] | Intrinsic activity [5]
1 | COc1ccccc1N1CCN(CCCCNC(=O)C2(c3ccc(Cl)cc3)CCCC2)CC1 | 56 nM | 42 nM | – | – | –
2 | COc1ccccc1N1CCN(CCCCNC(=O)/C=C/C=C/c2ccccc2)CC1 | 19 nM | 1.5 nM | – | – | –
3 | COc1ccccc1N1CCN(CCCCNC(=O)/C=C/c2ccccc2I)CC1 | 63 nM | 0.75 nM | – | – | –
4 | COc1ccccc1N1CCN(CCCCNC(=O)c2ccc(C(=O)c3ccccc3)cc2)CC1 | 63 nM | 2.5 nM | – | – | –
5 | COc1ccccc1N1CCN(CCCCNC(=O)/C=C/c2ccco2)CC1 | 11.1 nM | 0.6 nM | – | – | –
6 | COc1ccccc1N1CCN(CCCCNC(=O)c2ccccc2I)CC1 | 15.2 nM | 7.8 nM | – | – | –
7 | COc1ccccc1N1CCN(CCCCNC(=O)c2ccc(-c3ccc(Cl)cc3)o2)CC1 | 200 nM | 6.3 nM | – | – | –
8 | COc1ccccc1N1CCN(CCCN2C(=O)c3ccccc3C2=O)CC1 | 300 nM | 560 nM | – | – | –
9 | COc1ccccc1N1CCN(Cc2ccccc2CNC(=O)c2ccc3ccccc3c2)CC1 | 28.4 nM | 750 nM | – | – | –
10 | COc1ccccc1N1CCN(CCCCNC(=O)/C=C/c2ccc(-c3ccccc3)cc2)CC1 | 37 nM | 16 nM | – | – | –
11 | COc1ccccc1N1CCN(CCCCNC(=O)/C=C/c2ccc(OCc3ccccc3)cc2)CC1 | 32 nM | 19.5 nM | – | – | –
12 | COc1ccccc1N1CCN(CCCCNC(=O)/C=C/c2cc(I)c(OC)c(OC)c2)CC1 | 38.5 nM | 14.9 nM | – | – | –
13 | COc1ccccc1N1CCN(CCCCNC(=O)/C=C/c2cccc(I)c2)CC1 | 161 nM | 1.2 nM | – | – | –
14 | COc1ccccc1N1CCN(Cc2ccccc2CNC(=O)/C=C/c2ccccc2)CC1 | 18 nM | 325 nM | – | – | –
15 | COc1ccccc1N1CCN(C2CC3CC(N4CCN(c5ccccc5OC)CC4)CC3C2)CC1 (centres undefined) | 630 nM | 700 nM | – | – | –
16 | COc1ccccc1N1CCN(CCCCNC(=O)/C=C/c2cccc(Cl)c2)CC1 | 20 nM | 0.46 nM | – | – | –
17 | COc1ccccc1N1CCN(CCCCNC(=O)/C=C/c2ccc(I)cc2)CC1 | 76.4 nM | 0.5 nM | – | – | –
18 | COc1ccccc1N1CCN(Cc2cccc(CNC(=O)c3ccc4ccccc4c3)c2)CC1 | 45 nM | 100 nM | – | – | –
19 | COc1ccccc1N1CCN(CCCNC(=O)c2ccccc2I)CC1 | 126 nM | 213 nM | – | – | –
20 | COc1ccccc1N1CCN(CCCCNC(=O)c2ccc3ccccc3n2)CC1 | – | 6.6 nM | – | – | –
21 | COc1ccccc1N1CCN(CCCCNC(=O)/C=C/c2cccc(C(F)(F)F)c2)CC1 | 50.2 nM | 4.1 nM | – | – | –
22 | COc1ccccc1/C=C/C(=O)NCCCCN1CCN(c2ccccc2OC)CC1 | 14 nM | 0.56 nM | – | – | –
23 | COc1ccccc1N1CCN(CCCNC(=O)Cc2cccc3ccccc23)CC1 | 44 nM | 108 nM | – | – | –
24 | COc1ccccc1N1CCN(CCCCN2C(=O)C=C(c3ccccc3)C2=O)CC1 | 330 nM | 320 nM | – | – | –

Row | Compound | Ki [1] | Ki [2] | EC50 [3] | EC50 [4] | Intrinsic activity [5]
25 | COc1ccccc1N1CCN(CCCCNC(=O)c2nccc3ccccc23)CC1 | 20.9 nM | 9.62 nM | – | – | –
26 | COc1ccccc1N1CCN(CCCCNC(=O)/C=C/c2ccsc2)CC1 | 13 nM | 0.64 nM | – | – | –
27 | COc1ccccc1N1CCN(CCCCNC(=O)Cc2ccc3ccccc3c2)CC1 | 35 nM | 32 nM | – | – | –
28 | COc1ccccc1N1CCN(CCCCNC(=O)c2sc3ccccc3c2Cl)CC1 | 71.9 nM | 6.7 nM | – | – | –
29 | COc1ccccc1N1CCN(Cc2ccc(CNC(=O)c3ccc4ccccc4c3)cc2)CC1 | 200 nM | 40 nM | – | – | –
30 | COc1ccccc1N1CCN(CCCCNC(=O)c2ccc(C(C)(C)C)cc2)CC1 | 26.5 nM | 7.99 nM | – | – | –
31 | COc1ccccc1N1CCN(CCCCNC(=O)c2ccc(C(C)=O)cc2)CC1 | 17.5 nM | 1 nM | – | – | –
32 | COc1ccccc1N1CCN(CCCCNC(=O)c2ccc(Cl)cc2)CC1 | 19.5 nM | 0.5 nM | – | – | –
33 | COc1ccccc1N1CCN(CCCCN2C(=O)c3ccccc3C2=O)CC1 | 50 nM | 38 nM | – | – | –
34 | COc1ccccc1N1CCN(CCCCNC(=O)/C=C/c2ccc(Cl)c(Cl)c2)CC1 | 23 nM | 1.31 nM | – | – | –
35 | COc1ccccc1N1CCN(CCCCNC(=O)/C=C/c2ccc(Cl)cc2)CC1 | 22.6 nM | 0.44 nM | 10 nM | – | –
36 | COc1ccccc1N1CCN(CCCNC(=O)c2ccc(I)cc2)CC1 | 117 nM | 396 nM | – | – | –
37 | COc1ccccc1N1CCN(CCCCNC(=O)/C=C/c2ccc(C(F)(F)F)cc2)CC1 | 36.8 nM | 2.14 nM | – | – | –
38 | COc1ccccc1N1CCN(CCCCNC(=O)/C=C/c2ccc(Br)cc2)CC1 | 23.7 nM | 0.43 nM | – | – | –
39 | COc1ccccc1N1CCN(CCCCNC(=O)c2coc3ccccc3c2=O)CC1 | 47 nM | 3.3 nM | – | – | –
40 | COc1ccccc1N1CCN(CCCCNC(=O)/C=C/c2ccc(F)cc2)CC1 | 20.7 nM | 0.69 nM | – | – | –
41 | COc1ccccc1N1CCN(CCCCN2C(=O)c3cc4ccccc4cc3C2=O)CC1 | 145 nM | 23.3 nM | – | – | –
42 | COc1ccccc1N1CCN(CCCCNC(=O)c2cc3ccccc3oc2=O)CC1 | 23 nM | 1.8 nM | – | – | –
43 | COc1ccccc1N1CCN(CCCCNC(=O)/C=C/c2ccc(C(C)(C)C)cc2)CC1 | 128 nM | 10.2 nM | – | – | –
44 | COc1ccc2cc([C@H](C)C(=O)NCCCN3CCN(c4ccccc4OC)CC3)ccc2c1 | 94.6 nM | 262 nM | – | – | –
45 | COc1ccccc1N1CCN(CCCCNC(=O)c2cccc3c2-c2ccccc2C3=O)CC1 | 18 nM | 2.96 nM | – | – | –
46 | COc1ccccc1N1CCN(C2CC3CC(NC4CC5CC(N6CCN(c7ccccc7OC)CC6)CC5C4)CC3C2)CC1 (centres undefined) | 103 nM | 358 nM | – | – | –
47 | COc1ccccc1N1CCN(CCCCNC(=O)/C=C/c2ccc3ccccc3c2)CC1 | 32 nM | 0.68 nM | – | – | –
48 | COc1ccccc1N1CCN(CCCCNC(=O)c2cccc(I)c2)CC1 | 68 nM | 9.2 nM | – | – | –

Row | Compound | Ki [1] | Ki [2] | EC50 [3] | EC50 [4] | Intrinsic activity [5]
49 | COc1ccccc1N1CCN(CCCCNC(=O)/C=C/c2ccc(C#N)cc2)CC1 | 10 nM | 0.46 nM | – | – | –
50 | COc1ccccc1N1CCN(CCCNC(=O)Cc2ccc3ccccc3c2)CC1 | 56 nM | 140 nM | – | – | –
51 | COc1ccccc1N1CCN(CCCCN2C(=O)c3cccc4cccc(c34)C2=O)CC1 | 40 nM | 29 nM | – | – | –
52 | COc1ccccc1N1CCN(CCCCNC(=O)/C=C/c2ccccc2)CC1 | 13.5 nM | 0.33 nM | – | – | –
53 | COc1ccccc1N1CCN(CCCCNC(=O)C2CC2c2ccccc2)CC1 (centres undefined) | 81 nM | 15.5 nM | – | – | –
54 | COc1ccccc1N1CCN(CCCCNC(=O)c2ccc(I)cc2)CC1 | 146 nM | 3.9 nM | – | 1.2 nM | 0.5
55 | COc1ccccc1N1CCN(CCCNC(=O)c2cccc(I)c2)CC1 | 235 nM | 300 nM | – | – | –
56 | COc1ccccc1N1CCN(CCCCNC(=O)/C=C/c2ccc(Oc3ccccc3)cc2)CC1 | 65.2 nM | 10.1 nM | – | – | –
57 | COc1ccccc1N1CCN(CCCCNC(=O)CCc2ccccc2)CC1 | 48.7 nM | 4.8 nM | – | – | –
58 | COc1ccccc1N1CCN(CCCCNC(=O)/C=C/c2cccc3c2OCO3)CC1 | 8 nM | 0.55 nM | – | – | –
59 | COc1ccccc1N1CCN(CCCCNC(=O)/C=C/c2cccnc2)CC1 | 14.5 nM | 0.5 nM | – | – | –
60 | COc1ccccc1N1CCN(CCCCNC(=O)/C=C/c2ccc3c(c2)OCO3)CC1 | 10.3 nM | 1 nM | – | – | –
61 | COc1ccccc1N1CCN(CCCCNC(=O)/C=C/c2ccc([N+](=O)[O-])cc2)CC1 | 14 nM | 0.74 nM | – | – | –
62 | COc1ccccc1N1CCN(CCCCNC(=O)/C=C/c2cccs2)CC1 | 9.5 nM | 0.59 nM | – | – | –
63 | COc1ccccc1N1CCN(CCCCNC(=O)/C=C/c2ccc(Cl)cc2Cl)CC1 | 21 nM | 1.28 nM | – | – | –
64 | COc1ccccc1N1CCN(CCCCNC(=O)/C=C/c2ccc(C=O)cc2)CC1 | 11.5 nM | 0.73 nM | – | – | –
65 | COc1ccc(/C=C/C(=O)NCCCCN2CCN(c3ccccc3OC)CC2)cc1 | 12 nM | 0.38 nM | – | – | –
66 | COc1ccccc1N1CCN(CCCCNC(=O)/C=C/c2ccccc2Cl)CC1 | 15 nM | 0.52 nM | – | – | –
67 | COc1ccccc1N1CCN(CCCCNC(=O)c2cc3ccccc3cn2)CC1 | 27.5 nM | 1.48 nM | 2.5 nM | – | –
68 | COc1ccccc1N1CCN(CCCCNC(=O)c2ccc(-c3ccccc3)cc2)CC1 | – | 2.85 nM | – | – | –
69 | COc1ccccc1N1CCN(CCCCNC(=O)/C=C/c2ccc(/C=C/C(=O)NCCCCN3CCN(c4ccccc4OC)CC3)cc2)CC1 | 7.2 nM | 3.6 nM | – | – | –
70 | COc1ccccc1N1CCN(CCCCNC(=O)/C=C/c2cccc(Oc3ccccc3)c2)CC1 | 114 nM | 19.5 nM | – | – | –
71 | COc1ccccc1N1CCN(C2CC3CC(NC(=O)c4ccc5ccccc5c4)CC3C2)CC1 (centres undefined) | 178 nM | 37.2 nM | – | – | –
